Experimental data: US20020026053A1, “Novel 3-(substituted) -2- indolinones compounds and use thereof as inhibitors of protein kinase activity” (priority 1997, published 2002)

Target: T1, EGFR (Homo sapiens, UniProt P00533)
T1 construct: endogenous in cells; host or cells: A431 cells (lysate, captured with SUMO1 anti-EGFR antibody)
Assay: Biochemical EGFR Assay
Design: concentration or dose not given beside the values
Details: protocol P.167
Summary of the method: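 Readout is ABTS absorbance at 410 nm after anti-phosphotyrosine and HRP-antibody detection of EGFR autophosphorylation. The kinase was immunocaptured from A431 lysate, exposed 30 min to test compound diluted 1:10 in TBS, then phosphorylated for 5 min with ATP/MnCl2 before an EDTA stop.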

T1 sequence (P00533 25-1210): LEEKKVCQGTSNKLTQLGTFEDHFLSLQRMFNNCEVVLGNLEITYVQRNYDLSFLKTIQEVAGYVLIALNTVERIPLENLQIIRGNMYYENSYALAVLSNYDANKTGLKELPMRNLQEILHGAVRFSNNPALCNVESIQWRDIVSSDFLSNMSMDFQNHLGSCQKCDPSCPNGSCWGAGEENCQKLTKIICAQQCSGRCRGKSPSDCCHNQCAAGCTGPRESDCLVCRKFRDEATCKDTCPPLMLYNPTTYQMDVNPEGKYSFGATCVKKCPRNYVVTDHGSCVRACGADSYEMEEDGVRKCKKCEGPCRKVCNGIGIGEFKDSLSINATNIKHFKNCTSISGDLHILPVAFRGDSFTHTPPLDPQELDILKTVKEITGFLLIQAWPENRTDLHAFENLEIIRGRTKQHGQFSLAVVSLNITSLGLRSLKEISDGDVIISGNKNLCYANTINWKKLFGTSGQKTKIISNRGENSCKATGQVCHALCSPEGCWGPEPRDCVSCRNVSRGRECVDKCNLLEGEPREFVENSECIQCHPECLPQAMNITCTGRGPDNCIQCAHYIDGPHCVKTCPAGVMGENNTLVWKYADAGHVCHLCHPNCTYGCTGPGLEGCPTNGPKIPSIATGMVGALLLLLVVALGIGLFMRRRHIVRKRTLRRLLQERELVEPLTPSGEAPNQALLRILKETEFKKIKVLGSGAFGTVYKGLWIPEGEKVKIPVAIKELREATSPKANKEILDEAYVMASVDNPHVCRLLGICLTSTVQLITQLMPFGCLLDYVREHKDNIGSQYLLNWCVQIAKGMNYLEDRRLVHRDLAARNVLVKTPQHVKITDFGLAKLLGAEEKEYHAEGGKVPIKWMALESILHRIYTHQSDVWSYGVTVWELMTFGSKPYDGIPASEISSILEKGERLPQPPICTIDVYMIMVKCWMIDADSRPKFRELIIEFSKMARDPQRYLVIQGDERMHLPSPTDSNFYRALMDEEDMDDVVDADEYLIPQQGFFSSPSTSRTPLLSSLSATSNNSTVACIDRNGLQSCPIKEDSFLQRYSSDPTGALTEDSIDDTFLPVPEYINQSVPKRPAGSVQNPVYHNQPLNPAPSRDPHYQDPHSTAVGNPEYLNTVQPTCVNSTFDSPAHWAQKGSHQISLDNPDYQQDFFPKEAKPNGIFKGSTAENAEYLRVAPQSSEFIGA

SMILES	Biochem EGFR % Inhibition (P.167)
Cc1ccc(Oc2cccc(C=C3C(=O)Nc4c(Br)cc(Br)cc43)c2)cc1 [10738/A02]	16.7%
O=C1Nc2c(Br)cc(Br)cc2C1=Cc1cccc(Oc2ccc(Cl)c(Cl)c2)c1 [10738/A03]	40.5%
COc1ccc(C=C2C(=O)Nc3c(Br)cc(Br)cc32)cc1O [10738/A04]	−17.5%
O=C1Nc2c(Br)cc(Br)cc2C1=Cc1cc(O)ccc1[N+](=O)[O-] [10738/A05]	33.6%
O=C1Nc2c(Br)cc(Br)cc2C1=Cc1cccc(O)c1O [10738/A06]	54.9%
O=C1Nc2c(Br)cc(Br)cc2C1=Cc1cc(O)cc(O)c1 [10738/A07]	4.3%
O=C1Nc2c(Br)cc(Br)cc2C1=Cc1ccc(Cl)c(Cl)c1 [10738/A08]	6.0%
COc1ccccc1C=C1C(=O)Nc2c(Br)cc(Br)cc21 [10738/A09]	17.0%
CC(C)c1ccc(C=C2C(=O)Nc3c(Br)cc(Br)cc32)cc1 [10738/A10]	−0.9%
CCCOc1ccc(C=C2C(=O)Nc3c(Br)cc(Br)cc32)cc1 [10738/A11]	4.5%
Cc1ccc(Oc2cccc(C=C3C(=O)Nc4ccc(I)cc43)c2)cc1 [10738/B02]	−24.4%
O=C1Nc2ccc(I)cc2C1=Cc1cccc(Oc2ccc(Cl)c(Cl)c2)c1 [10738/B03]	19.2%
COc1ccc(C=C2C(=O)Nc3ccc(I)cc32)cc1O [10738/B04]	51.2%
O=C1Nc2ccc(I)cc2C1=Cc1cc(O)ccc1[N+](=O)[O-] [10738/B05]	57.6%
O=C1Nc2ccc(I)cc2C1=Cc1cccc(O)c1O [10738/B06]	22.9%
O=C1Nc2ccc(I)cc2C1=Cc1cc(O)cc(O)c1 [10738/B07]	28.7%
O=C1Nc2ccc(I)cc2C1=Cc1ccc(Cl)c(Cl)c1 [10738/B08]	33.9%
COc1ccccc1C=C1C(=O)Nc2ccc(I)cc21 [10738/B09]	20.9%
CC(C)c1ccc(C=C2C(=O)Nc3ccc(I)cc32)cc1 [10738/B10]	37.3%
CCCOc1ccc(C=C2C(=O)Nc3ccc(I)cc32)cc1 [10738/B11]	18.0%
Cc1ccc(Oc2cccc(C=C3C(=O)Nc4ccc(Br)c(C)c43)c2)cc1 [10738/C02]	−30.5%
Cc1c(Br)ccc2c1C(=Cc1cccc(Oc3ccc(Cl)c(Cl)c3)c1)C(=O)N2 [10738/C03]	8.2%
COc1ccc(C=C2C(=O)Nc3ccc(Br)c(C)c32)cc1O [10738/C04]	43.7%
Cc1c(Br)ccc2c1C(=Cc1cc(O)ccc1[N+](=O)[O-])C(=O)N2 [10738/C05]	18.4%
Cc1c(Br)ccc2c1C(=Cc1cccc(O)c1O)C(=O)N2 [10738/C06]	28.7%

SMILES	Biochem EGFR % Inhibition (P.167)
Cc1c(Br)ccc2c1C(=Cc1cc(O)cc(O)c1)C(=O)N2 [10738/C07]	−19.0%
Cc1c(Br)ccc2c1C(=Cc1ccc(Cl)c(Cl)c1)C(=O)N2 [10738/C08]	−11.9%
COc1ccccc1C=C1C(=O)Nc2ccc(Br)c(C)c21 [10738/C09]	31.9%
Cc1c(Br)ccc2c1C(=Cc1ccc(C(C)C)cc1)C(=O)N2 [10738/C10]	5.2%
CCCOc1ccc(C=C2C(=O)Nc3ccc(Br)c(C)c32)cc1 [10738/C11]	−1.1%
CNS(=O)(=O)c1ccc2c(c1)C(=Cc1cccc(Oc3ccc(C)cc3)c1)C(=O)N2 [10738/D02]	21.4%
CNS(=O)(=O)c1ccc2c(c1)C(=Cc1cccc(Oc3ccc(Cl)c(Cl)c3)c1)C(=O)N2 [10738/D03]	47.6%
CNS(=O)(=O)c1ccc2c(c1)C(=Cc1ccc(OC)c(O)c1)C(=O)N2 [10738/D04]	7.4%
CNS(=O)(=O)c1ccc2c(c1)C(=Cc1cc(O)ccc1[N+](=O)[O-])C(=O)N2 [10738/D05]	4.3%
CNS(=O)(=O)c1ccc2c(c1)C(=Cc1cccc(O)c1O)C(=O)N2 [10738/D06]	32.4%
CNS(=O)(=O)c1ccc2c(c1)C(=Cc1cc(O)cc(O)c1)C(=O)N2 [10738/D07]	−8.7%
CNS(=O)(=O)c1ccc2c(c1)C(=Cc1ccc(Cl)c(Cl)c1)C(=O)N2 [10738/D08]	0.6%
CNS(=O)(=O)c1ccc2c(c1)C(=Cc1ccccc1OC)C(=O)N2 [10738/D09]	12.1%
CNS(=O)(=O)c1ccc2c(c1)C(=Cc1ccc(C(C)C)cc1)C(=O)N2 [10738/D10]	−12.4%
CCCOc1ccc(C=C2C(=O)Nc3ccc(S(=O)(=O)NC)cc32)cc1 [10738/D11]	−13.1%
Cc1ccc(Oc2cccc(C=C3C(=O)Nc4ccc(S(=O)(=O)Nc5ccc(C(F)(F)F)cc5)cc43)c2)cc1 [10738/E02]	56.1%
O=C1Nc2ccc(S(=O)(=O)Nc3ccc(C(F)(F)F)cc3)cc2C1=Cc1cccc(Oc2ccc(Cl)c(Cl)c2)c1 [10738/E03]	82.6%
COc1ccc(C=C2C(=O)Nc3ccc(S(=O)(=O)Nc4ccc(C(F)(F)F)cc4)cc32)cc1O [10738/E04]	13.1%
O=C1Nc2ccc(S(=O)(=O)Nc3ccc(C(F)(F)F)cc3)cc2C1=Cc1cc(O)ccc1[N+](=O)[O-] [10738/E05]	52.0%
O=C1Nc2ccc(S(=O)(=O)Nc3ccc(C(F)(F)F)cc3)cc2C1=Cc1cccc(O)c1O [10738/E06]	15.8%
O=C1Nc2ccc(S(=O)(=O)Nc3ccc(C(F)(F)F)cc3)cc2C1=Cc1cc(O)cc(O)c1 [10738/E07]	57.1%
O=C1Nc2ccc(S(=O)(=O)Nc3ccc(C(F)(F)F)cc3)cc2C1=Cc1ccc(Cl)c(Cl)c1 [10738/E08]	43.2%
COc1ccccc1C=C1C(=O)Nc2ccc(S(=O)(=O)Nc3ccc(C(F)(F)F)cc3)cc21 [10738/E09]	35.3%
CC(C)c1ccc(C=C2C(=O)Nc3ccc(S(=O)(=O)Nc4ccc(C(F)(F)F)cc4)cc32)cc1 [10738/E10]	34.1%
CCCOc1ccc(C=C2C(=O)Nc3ccc(S(=O)(=O)Nc4ccc(C(F)(F)F)cc4)cc32)cc1 [10738/E11]	15.8%

SMILES	Biochem EGFR % Inhibition (P.167)
Cc1ccc(Oc2cccc(C=C3C(=O)Nc4ccc(S(=O)(=O)N5CCOCC5)cc43)c2)cc1 [10738/F02]	13.1%
O=C1Nc2ccc(S(=O)(=O)N3CCOCC3)cc2C1=Cc1cccc(Oc2ccc(Cl)c(Cl)c2)c1 [10738/F03]	45.6%
COc1ccc(C=C2C(=O)Nc3ccc(S(=O)(=O)N4CCOCC4)cc32)cc1O [10738/F04]	−6.5%
O=C1Nc2ccc(S(=O)(=O)N3CCOCC3)cc2C1=Cc1cc(O)ccc1[N+](=O)[O-] [10738/F05]	51.5%
O=C1Nc2ccc(S(=O)(=O)N3CCOCC3)cc2C1=Cc1cccc(O)c1O [10738/F06]	−19.5%
O=C1Nc2ccc(S(=O)(=O)N3CCOCC3)cc2C1=Cc1cc(O)cc(O)c1 [10738/F07]	9.1%
O=C1Nc2ccc(S(=O)(=O)N3CCOCC3)cc2C1=Cc1ccc(Cl)c(Cl)c1 [10738/F08]	15.5%
COc1ccccc1C=C1C(=O)Nc2ccc(S(=O)(=O)N3CCOCC3)cc21 [10738/F09]	0.1%
CC(C)c1ccc(C=C2C(=O)Nc3ccc(S(=O)(=O)N4CCOCC4)cc32)cc1 [10738/F10]	−4.8%
CCCOc1ccc(C=C2C(=O)Nc3ccc(S(=O)(=O)N4CCOCC4)cc32)cc1 [10738/F11]	−14.8%
Cc1ccc(Oc2cccc(C=C3C(=O)Nc4ccc(CCCl)cc43)c2)cc1 [10738/G02]	19.9%
O=C1Nc2ccc(CCCl)cc2C1=Cc1cccc(Oc2ccc(Cl)c(Cl)c2)c1 [10738/G03]	31.9%
COc1ccc(C=C2C(=O)Nc3ccc(CCCl)cc32)cc1O [10738/G04]	12.1%
O=C1Nc2ccc(CCCl)cc2C1=Cc1cc(O)ccc1[N+](=O)[O-] [10738/G05]	27.3%
O=C1Nc2ccc(CCCl)cc2C1=Cc1cccc(O)c1O [10738/G06]	−8.2%
O=C1Nc2ccc(CCCl)cc2C1=Cc1cc(O)cc(O)c1 [10738/G07]	−1.9%
O=C1Nc2ccc(CCCl)cc2C1=Cc1ccc(Cl)c(Cl)c1 [10738/G08]	23.6%
COc1ccccc1C=C1C(=O)Nc2ccc(CCCl)cc21 [10738/G09]	16.7%
CC(C)c1ccc(C=C2C(=O)Nc3ccc(CCCl)cc32)cc1 [10738/G10]	26.5%
CCCOc1ccc(C=C2C(=O)Nc3ccc(CCCl)cc32)cc1 [10738/G11]	19.4%
Cc1ccc(Oc2cccc(C=C3C(=O)Nc4c(Br)cc(Br)c(C)c43)c2)cc1 [10738/H02]	−52.0%
Cc1c(Br)cc(Br)c2c1C(=Cc1cccc(Oc3ccc(Cl)c(Cl)c3)c1)C(=O)N2 [10738/H03]	16.7%
COc1ccc(C=C2C(=O)Nc3c(Br)cc(Br)c(C)c32)cc1O [10738/H04]	−7.0%
Cc1c(Br)cc(Br)c2c1C(=Cc1cc(O)ccc1[N+](=O)[O-])C(=O)N2 [10738/H05]	5.5%
Cc1c(Br)cc(Br)c2c1C(=Cc1cccc(O)c1O)C(=O)N2 [10738/H06]	−53.8%
